Measurements from patent US20210161189A1, “MONOESTER SUGAR DERIVATIVES AS FLAVOR MODIFIERS” (Firmenich SA, priority 2018, published 2021).

Experiments:
[1] = tested on: sensory panel; test: Sensory panel, dairy test composition (milk sweetened with 3% w/v sucrose); assay type: in vivo, human; settings: 100 ppm in milk sweetened with 3% sucrose; panel score
Description: Glucose-6-O-octanoate, manufactured according to the methods described in Example 1 above was added to a dairy test composition (milk sweetened with 3% w/v sucrose), to result in a final concentration of 100 ppm in the test composition. In parallel, a control composition, comprising milk sweetened with 3% w/v sucrose was also generated. A sensory panel consisting of between 6 to 8 persons compared the overall flavor, sweetness, acidity, bitterness, astringency, off-notes, and long-lastingness of the sweetness of the dairy test composition containing 100 ppm glucose-6-O-octanoate and the control composition. The results were analyzed using the Duncan comparison test.

[2] = tested on: sensory panel; test: Sensory panel, lemon flavored alcoholic beverage; assay type: in vivo, human; parameters: scale not given here; settings: panel score
Description: (§1) […] In parallel, a control composition, comprising lemon flavored alcoholic beverage was also generated. A sensory panel consisting of between 6 to 8 persons compared the overall flavor, sweetness, acidity, bitterness, astringency, off-notes, and long-lastingness of the sweetness of the test composition and the control composition. The results were analyzed using the Duncan comparison test.

[3] = tested on: sensory panel; test: Sensory panel, pomegranate juice; assay type: in vivo, human; settings: 100 ppm in pomegranate juice; panel score
Description: Next, glucose-6-O-octanoate was added to a pomegranate juice composition, to result in a final concentration of 100 ppm in the test composition. In parallel, a control composition, comprising pomegranate juice was also generated. A sensory panel consisting of between 6 to 8 persons compared the overall flavor, sweetness, acidity, bitterness, astringency, off-notes, and long-lastingness of the sweetness of the test composition and the control composition. The results were analyzed using the Duncan comparison test.

[4] = tested on: sensory panel; test: Sensory panel, raspberry flavored water; assay type: in vivo, human; parameters: scale not given here; settings: panel score
Description: as §1, with “raspberry” for “lemon”, “water” for “alcoholic beverage”

[5] = tested on: sensory panel; test: Taste modifier properties in model systems (sensory panel of 15 persons, with/without noseclip); assay type: in vivo, human; settings: 100 ppm; for Sour taste modulation effect: without nose clip
Description: The sensory properties of various compositions comprising a monoester derivative of glucose were tested in various model systems, outlined in Table 14 below. [table] FIGS. 12 to 18 report the sweetness modifier properties of each of the following compounds (tested at 100 ppm in the various mode systems described above): glucose-6-O-octanoate, glucose-6-O-acetate, glucose-6-O-hexanoate, glucose-6-O-decanoate, glucose-6-O-hexadecanoate, glucose-6-O-oleate and glucose-6-O-oleyl derivative. The sensory properties were evaluated by a sensory panel consisting of15 persons, where the properties were evaluated with the subjects wearing a noseclip (With NC), and without a noseclip (Without NC). The subjects evaluate the perceived intensities of different sensory attributes on a linear scale (“0” note intense to “10” very intense) for the corresponding model mixtures without and with the compound at 100ppm. The differences of perceived intensities between the model mixtures with and without the compound are represented for each attribute. A statistical data treatment (unilateral paired student test) is achieved on each attribute to conclude on a significant or not significant taste modulation effect of the compound.

[6] = biological target: T1, β-Lactoglobulin layer (Bos taurus, UniProt P02754); test: QCM-D mass adsorption of BWAT Raspberry water films on a protein layer; assay type: physicochemical; settings: for mass/area: mass absorption on protein layer
T1 sequence (P02754 17-178): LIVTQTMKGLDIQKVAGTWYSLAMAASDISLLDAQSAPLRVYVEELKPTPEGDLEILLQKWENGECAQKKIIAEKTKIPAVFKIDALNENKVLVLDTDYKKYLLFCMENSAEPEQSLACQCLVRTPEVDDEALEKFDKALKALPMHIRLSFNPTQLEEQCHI
Source text: Quartz Crystal Microbalance with Dissipation monitoring (QCM-D) is a real-time, nanoscale technique for monitoring and characterizing thin films on surfaces as well for analyzing surface phenomena including thin film formation, adsorption, desorption, molecular interactions, reactions and structural properties. In this way, the QCM operates as a very sensitive balance.
A QCM sensor consists of a thin quartz disc sandwiched between a pair of electrodes. Due to the piezoelectric properties of quartz, it is possible to excite the crystal to oscillation by applying an AC voltage across its electrodes. Normally the electrodes are made of gold, which can be coated with a wide range of different materials. The resonance frequency (f) of the sensor depends on the total oscillating mass, including water coupled to the oscillation. When a thin film is attached to the sensor, the frequency decreases. If the film is thin and rigid the decrease in frequency is proportional to the mass of the film. Frequency monitoring gives information about mass changes and thickness of adsorbed film. Adsorbed films dampen the sensor's oscillation. […] Therefore dissipation is related to the rigidity of the adsorbed film.
This technique was used to analyse the properties of adsorbed BWAT Raspberry water films on a β-Lactoglobulin layer in order to compare the obtained physico-chemical data to the sensory data mentioned beforehand. β-Lactoglobulin was used in order to mimic the protein layer in the oral cavity.
The measurements were done as duplicates. First a protein layer was adsorbed on the quartz crystal. As soon as equilibrium is obtained, the excessive protein layer was rinsed with Millipore water in order to create a homogenous protein monolayer. Ensuing, the Raspberry water was left to rinse over the protein layer—frequency changes and energy dissipation were monitored during a time lapse of 10 min. A last rinsing step with Millipore was conducted.
To understand the role of glucose-6-O-octanoate (G60) as astringency/bitterness modulator the following solutions were investigated on their adsorption behavior.

[7] = 100 ppm in lemon flavored alcoholic beverage
[8] = 200 ppm in lemon flavored alcoholic beverage

`CCCCCCCC(=O)OC[C@@H](O)[C@@H](O)[C@H](O)[C@@H](O)C=O` [glucose-6-O-octanoate] showed an Acidity [1] of 0, an Astringency [1] of 0.6 and a Bitterness [1] of 0.8. The Long-Lasting [1] was 1.4, the “Overall Flavor” value [1] was 1.8 and the Acidity [2, 7] was 2. The Astringency [2, 7] was 1, the Off-notes [2, 7] was 0.25 and the “Overall Flavor” value [2, 7] was 3.5. For the same molecule, the Sweetness [2, 7] was 3, the Acidity [2, 8] was 2 and the Astringency [2, 8] was 2. For the same molecule, the Bitterness [2, 8] was 1.1, the Long-Lasting [2, 8] was 1.6 and the Off-notes [2, 8] was 0.4. For the same molecule, the “Overall Flavor” value [2, 8] was 2.3, the Long-Lasting [3] was 1.75 and the Off-notes [3] was 0.62. For the same molecule, the “Overall Flavor” value [3] was 3.38, the Astringency ([4]; 100 ppm in raspberry water) was 0.58 and the Bitterness ([4]; 100 ppm in raspberry water) was 0.5. For the same molecule, the Long-Lasting ([4]; 100 ppm in raspberry water) was 0.67, the “Overall Flavor” value ([4]; 100 ppm in raspberry water) was 3.33 and the Sweetness ([4]; 100 ppm in raspberry water) was 3.42. The Acidity ([4]; 200 ppm in raspberry water) was 2.62, the Long-Lasting ([4]; 200 ppm in raspberry water) was 1.81 and the “Overall Flavor” value ([4]; 200 ppm in raspberry water) was 3.06. For the same molecule, the Sweetness ([4]; 200 ppm in raspberry water) was 2.69, the “Sweet taste modulation effect” value ([5]; SG95 model mixture, without and with nose clip) was “significant sweet enhancing effects” and the “Round/thick/mouth coating modulation effect” value ([5]; beverage grapefruit model, with nose clip, significance 95%) was “significant round/thick/mouth coating enhancing effect”. The “Sour taste modulation effect” value ([5]; beverage grapefruit model, significance 95%) was “significant sour masking effect”, the “Sweet taste modulation effect” value ([5]; semi-skimmed milk+sucrose model mixture, without and with nose clip) was “significant sweet enhancing effects” and the “Sweet taste modulation effect” value ([5]; stevia-sour model, with nose clip, significance 95%) was “significant sweet masking effect”. For the same molecule, the “Sweet taste modulation effect” value ([5]; sucrose model mixture) was “significant sweet enhancing effects”, the “Sour taste modulation effect” value ([5]; sweet-sour model mixture, significance 95%) was “significant sour masking effect” and the “Mass adsorption versus control sample” value ([6]; BWAT raspberry water in presence of G60) was “higher mass adsorption compared to the control sample”. For the same molecule, the mass/area ([6]; BWAT w/ 200 ppm G60) was 1257 ng/cm^2, the mass/area ([6]; BWAT w/ 1000 ppm G60) was 1194 ng/cm^2 and the “Amount of rinsed away mass” value ([6]; over the 10 min of mass adsorption monitoring, dependence on G60 concentration) was “The higher the G60 concentration the lower is the amount of rinsed away mass”.
